Reference: patent publication US20250312323A1 (Cavion, Inc., priority 2018, published 2025)

Assays:
[1] = Pharmacokinetics of MR2 CX-8998 in fed versus fasted subjects; assay type: in vivo, human; settings: MR2 CX-8998, single dose 1×8 mg
[2] = tested on: EEG alpha power; experiment: Human pharmaco-EEG alpha power (Study PN001/Part II); assay type: in vivo; settings: at plasma concentrations greater than 200 to 300 nM (4 mg BID)
From the text: FIG. 91 contains a graph showing the analysis of awake EEG absolute power for Alpha band (Electrode site Oz, eyes closed condition) (Study PN001/Part II).
FIG. 92 contains a graph showing the pharmacokinetic/pharmacodynamic analysis of EEG Alpha power (Study PN001/Part 1). BID=twice daily; EEG=electroencephalogram; MK=CX-8998; PBO=placebo; PD=pharmacodynamic.

effect of fed vs fasted state on early absorption [1]: impacts early absorption
SMILES: CC(C)c1ccc(CC(=O)N[C@H](C)c2ccc(OCC(F)(F)F)cn2)cc1 [CX-8998]
effect of fed state on overall exposure as measured by AUC [1]: does not appear to significantly impact overall exposure
effect of fed vs fasted state on late absorption [1]: does not appear to significantly impact late absorption
reduction of EEG alpha power [2]: ≥ 25%
